Results on 4 molecules are retold here after BindingDB's records for doi:10.1046/j.1440-1681.1999.03022.x (University of Melbourne, 1999).

SMILES strings stand for the structures.

The assay deals with T1, Promotilin (Oryctolagus cuniculus, UniProt P27114).
T1 sequence (P27114 whole entry): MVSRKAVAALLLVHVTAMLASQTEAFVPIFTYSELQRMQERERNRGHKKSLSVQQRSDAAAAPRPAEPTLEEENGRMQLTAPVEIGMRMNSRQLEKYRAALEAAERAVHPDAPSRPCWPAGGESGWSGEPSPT
One may read the Ki as the equilibrium dissociation constant of an inhibitor or competing ligand from its target. Low readings indicate a stronger hold on the target, high ones a looser hold on the target. In turn, `CC[C@H]1OC(=O)[C@H](C)[C@@H](O[C@H]2C[C@@](C)(OC)[C@@H](O)[C@H](C)O2)[C@H](C)[C@@H](O[C@@H]2O[C@H](C)C[C@H](N(C)C(C)C)[C@H]2O)[C@@]2(C)CC(C)=C(O2)[C@H](C)C(=O)[C@]1(C)OC` [Mitemcinal] had an inhibition constant (Ki) of 31.6 nM.
Molecule `CC[C@H]1OC(=O)[C@H](C)[C@@H](O[C@H]2C[C@@](C)(OC)[C@@H](O)[C@H](C)O2)[C@H](C)[C@@H](O[C@H]2O[C@@H](C)C[C@@H](N(C)C)[C@@H]2O)[C@](C)(O)C[C@@H](C)C(=O)[C@H](C)[C@@H](O)[C@]1(C)O` [(3R,4S,5S,6R,7R,9R,11R,12R,13S,14R)-6-{[(2R,3S,4R,6S)-4-(dimethylamino)-3-hydroxy-6-methyloxan-2-yl]oxy}-14-ethyl-7,12,13-trihydroxy-4-{[(2R,4R,5S,6S)-5-hydroxy-4-methoxy-4,6-dimethyloxan-2-yl]oxy}-3,5,7,9,11,13-hexamethyl-1-oxacyclotetradecane-2,10-dione] returned a Ki of 1000 nM.
With `C[N+](C)(C)CCOC(N)=O` [(2-Hydroxyethyl)trimethyl ammonium chloride carbamate], the Ki worked out at 158 nM. Compared with the last molecule, the Ki is about 6.3-fold lower.
As for `CC[C@H](C)[C@H](NC(=O)[C@@H]1CCCN1C(=O)[C@@H](NC(=O)[C@@H](N)Cc1ccccc1)C(C)C)C(=O)N[C@@H](Cc1ccccc1)C(=O)N[C@H](C(=O)N[C@@H](Cc1ccc(O)cc1)C(=O)NCC(=O)N[C@@H](CCC(=O)O)C(=O)N[C@@H](CC(C)C)C(=O)N[C@@H](CCC(N)=O)C(=O)N[C@@H](CCCNC(=N)N)C(=O)N[C@@H](CCSC)C(=O)N[C@@H](CCC(N)=O)C(=O)N[C@@H](CCC(=O)O)C(=O)N[C@@H](CCCCN)C(=O)N[C@@H](CCC(=O)O)C(=O)N[C@@H](CCCNC(=N)N)C(=O)N[C@@H](CC(N)=O)C(=O)N[C@@H](CCCCN)C(=O)NCC(=O)N[C@@H](CCC(N)=O)C(=O)O)[C@@H](C)O` [CAS_52906-92-0], the affinity, expressed as Ki, was 3.98 nM.
